Target: T1, acyl-CoA:cholesterol O-acyltransferase (ACAT) (Oryctolagus cuniculus, UniProt G1SFD9)
T1 construct: The intestinal mucosa of a white rabbit was homogenized and microsomal fraction was obtained by stepwise centrifugation; from tissue; host or cells: intestinal mucosa of white rabbit, microsomal fraction
T1 sequence (G1SFD9 1-524): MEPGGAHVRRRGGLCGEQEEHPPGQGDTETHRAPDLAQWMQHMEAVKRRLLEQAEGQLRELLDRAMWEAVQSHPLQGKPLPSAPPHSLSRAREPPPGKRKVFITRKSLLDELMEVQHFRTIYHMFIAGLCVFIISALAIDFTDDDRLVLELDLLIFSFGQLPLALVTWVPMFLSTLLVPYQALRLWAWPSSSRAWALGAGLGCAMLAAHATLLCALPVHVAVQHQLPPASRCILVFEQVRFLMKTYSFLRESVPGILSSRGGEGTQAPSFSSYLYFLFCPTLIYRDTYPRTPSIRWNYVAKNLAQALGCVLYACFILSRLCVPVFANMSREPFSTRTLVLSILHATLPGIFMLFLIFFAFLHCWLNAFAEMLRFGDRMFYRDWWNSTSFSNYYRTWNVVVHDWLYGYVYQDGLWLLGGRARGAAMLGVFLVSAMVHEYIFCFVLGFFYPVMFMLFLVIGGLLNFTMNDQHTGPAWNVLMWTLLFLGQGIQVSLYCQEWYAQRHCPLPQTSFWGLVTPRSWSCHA
Experiment: Inhibitory activity on acyl-CoA:cholesterol O-acyltransferase (ACAT), intestinal mucosa microsomal fraction, [1-14C]oleyl-CoA incorporation into cholesterol esters
Type: biochemical, white rabbit
Settings: read-out: Inhibition rate %
Procedure: Inhibitory activity on acyl-CoA:cholesterol Oacyltransferase (ACAT)
The enzyme used in the test was prepared according to the method of Heider et al. [J. Lipid, Res. 24, 1127 (1983)]. The intestinal mucosa of a white rabbit was homogenized and microsomal fraction was obtained by stepwise centrifugation. The microsomal fraction was suspended in 0,154M phosphate buffer (pH 0 7.4) and stored at -80° C. until use.
ACAT activity was determined by a modification of the method of Helgerud et al. [J. Lipid Res. 22, 271 (1981)] by measuring radioactivity incorporated into cholesterol esters from [1-14C]oleyl-CoA, as an indication. As to the ACAT-inhibiting activity of each compound to be tested, the inhibition rate was calculated by the following equation.

| Compound | inhibition at 0.01 µM [%] | inhibition at 1 µM [%] |
| --- | --- | --- |
| CCc1cccc(CC)c1NC(=O)Nc1oc2ccc(F)cc2c1-c1ccccc1Cl [Compound 1] | 49.8 |  |
| CC(C)c1cccc(C(C)C)c1NC(=O)Nc1oc2ccc(F)cc2c1-c1ccccc1Cl [Compound 2, N-[3-(2-Chlorophenyl)-5-fluorobenzofuran-2-yl]-N'-(2,6-diisopropylphenyl)urea] | 58.3 |  |
| O=C(Nc1ccccc1)Nc1oc2ccc(Cl)cc2c1-c1ccccc1Cl [Compound 4, N-[5-Chloro-3-(2-chlorophenyl)benzofuran-2-yl]-N'-phenylurea] |  | 77.9 |
| Cc1ccccc1NC(=O)Nc1oc2ccc(Cl)cc2c1-c1ccccc1Cl [Compound 5, N-[5-Chloro-3-(2-chlorophenyl)benzofuran-2-yl]-N'-(2-methylphenyl)urea] | 15.4 | 98.5 |
| O=C(Nc1ccccc1C(F)(F)F)Nc1oc2ccc(Cl)cc2c1-c1ccccc1Cl [Compound 7, N-[5-Chloro-3-(2-chlorophenyl)benzofuran-2-yl]-N'-(2-trifluoromethylphenyl)urea] | 37.2 | 99.1 |
| CC(C)c1cccc(C(C)C)c1NC(=O)Nc1oc2ccc(Cl)cc2c1-c1ccccc1Cl [Compound 13, N-[5-Chloro-3-(2-chlorophenyl)benzofuran-2-yl]-N'-(2,6-diisopropylphenyl)urea] | 84.9 | 99.4 |
| Cc1cccc(C(C)C)c1NC(=O)Nc1oc2ccc(Cl)cc2c1-c1ccccc1Cl [Compound 15, N-[5-Chloro-3-(2-chlorophenyl)benzofuran-2-yl]-N'-(2-isopropyl-6-methylphenyl)urea] | 76.8 | 99.4 |
| Cc1cccc(N(C)C)c1NC(=O)Nc1oc2ccc(Cl)cc2c1-c1ccccc1Cl [Compound 19, N-[5-chloro-3-(2-chlorophenyl)benzofuran-2-yl]-N'-(2-dimethylamino-6-methylphenyl)urea] | 71.3 |  |
| CCc1ccc2oc(NC(=O)Nc3ccc(F)cc3F)c(-c3ccccc3Cl)c2c1 [Compound 26, N-[-3-(2-Chlorophenyl)-5-ethylbenzofuran-2-yl]-N'-(2,4-difluorophenyl)urea] | 41.2 |  |
| CCCCCCc1ccc2oc(NC(=O)Nc3c(C(C)C)cccc3C(C)C)c(-c3ccccc3Cl)c2c1 [Compound 27, N-[3-(2-Chlorophenyl)-5-n-hexylbenzofuran-2-yl]-N'-(2,6-diisopropylphenyl)urea] | 63.5 |  |
| Cc1cc(C)c2oc(NC(=O)Nc3c(F)cccc3F)c(-c3ccccc3Cl)c2c1 [Compound 47, N-[3-(2-Chlorophenyl)-5,7-dimethylbenzofuran-2-yl]-N'-(2,6-difluorophenyl)urea] |  | 93 |
| CC(C)c1cccc(C(C)C)c1NC(=O)Nc1oc2cc3c(cc2c1-c1ccccc1Cl)CCC3 [Compound 53, N-[3-(2-Chlorophenyl)-6,7-dihydro-5H-cyclopenta[f]benzofuran-2-yl]-N'-(2,6-diisopropylphenyl)urea] | 43.7 |  |
| O=C(Nc1ccc(F)cc1F)Nc1oc2cc3c(cc2c1-c1ccccc1Cl)CCC3 [Compound 55, N-[3-(2-Chlorophenyl)-6,7-dihydro-5H-cyclopenta[f]benzofuran-2-yl]-N'-(2,4-difluorophenyl)urea] | 32.1 |  |
| CC(C)c1cccc(C(C)C)c1NC(=O)Nc1oc2ccc(Cl)cc2c1-c1ccccc1F [Compound 58, N-[5-Chloro-3-(2-fluorophenyl)benzofuran-2-yl]-N'-(2,6-diisopropylphenyl)urea] | 69.2 |  |
| CCc1cccc(CC)c1NC(=O)Nc1sc2ccc(C(C)C)cc2c1-c1ccccc1Cl [Compound 76, N-[3-(2-Chlorophenyl)-5-isopropyl-1-benzothiophen-2-yl]-N'-(2,6-diethylphenyl)urea] | 71 |  |

Further lines, results first:

| inhibition at 0.01 µM [%] | inhibition at 1 µM [%] | Compound |
| --- | --- | --- |
| 24.9 | 97.4 | COc1ccccc1NC(=O)Nc1oc2ccc(Cl)cc2c1-c1ccccc1Cl [Compound 8, N-[5-Chloro-3-(2-chlorophenyl)benzofuran-2-yl]-N'-(2-methoxyphenyl)urea] |
| 69.3 |  | Cc1ccc2oc(NC(=O)Nc3c(C(C)C)cccc3C(C)C)c(-c3ccccc3Cl)c2c1 [Compound 22, N-[3-(2-Chlorophenyl)-5-methylbenzofuran-2-yl]-N'-(2,6-diisopropylphenyl)urea] |
| 73.3 |  | CCc1ccc2oc(NC(=O)Nc3c(C(C)C)cccc3C(C)C)c(-c3ccccc3Cl)c2c1 [Compound 25, N-[3-(2-Chlorophenyl)-5-ethylbenzofuran-2-yl]-N'-(2,6-diisopropylphenyl)urea] |
| 58.4 |  | COc1ccc2oc(NC(=O)Nc3c(C(C)C)cccc3C(C)C)c(-c3ccccc3Cl)c2c1 [Compound 30, N-[3-(2-Chlorophenyl)-5-methoxybenzofuran-2-yl]-N'-(2,6-diisopropylphenyl)urea] |
| 37.6 | 98.9 | Cc1cc2oc(NC(=O)Nc3c(C)cccc3C)c(-c3ccccc3Cl)c2cc1C [Compound 36, N-[3-(2-Chlorophenyl)-5,6-dimethylbenzofuran-2-yl]-N'-(2,6-dimethylphenyl)urea] |
| 77.2 | 99.5 | Cc1cc2oc(NC(=O)Nc3c(C(C)C)cccc3C(C)C)c(-c3ccccc3Cl)c2cc1C [Compound 38, N-[3-(2-Chlorophenyl)-5,6-dimethylbenzofuran-2-yl]-N'-(2,6-diisopropylphenyl)urea] |
| 70.9 | 99.4 | Cc1cc2oc(NC(=O)Nc3c(C)cccc3C(C)C)c(-c3ccccc3Cl)c2cc1C [Compound 39] |
| 52.1 | 99.5 | Cc1cc(C)c2oc(NC(=O)Nc3c(C(C)C)cccc3C(C)C)c(-c3ccccc3Cl)c2c1 [Compound 43, N-[3-(2-Chlorophenyl)-5,7-dimethylbenzofuran-2-yl]-N'-(2,6-diisopropylphenyl)urea] |
|  | 94 | Cc1cc(C)c(NC(=O)Nc2oc3c(C)cc(C)cc3c2-c2ccccc2Cl)c(C)c1 [Compound 45, N-[3-(2-Chlorophenyl)-5,7-dimethylbenzofuran-2-yl]-N'-(2,4,6-trimethylphenyl)urea] |
|  | 92.7 | Cc1cc(C)c2oc(NC(=O)Nc3ccc(F)cc3F)c(-c3ccccc3Cl)c2c1 [Compound 46, N-[3-(2-Chlorophenyl)-5,7-dimethylbenzofuran-2-yl]-N'-(2,4-difluorophenyl)urea] |
| 6.8 | 95.6 | Cc1cc(C)c2oc(NC(=O)Nc3c(F)cc(F)cc3F)c(-c3ccccc3Cl)c2c1 [Compound 48, N-[3-(2-Chlorophenyl)-5,7-dimethylbenzofuran-2-yl]-N'-(2,4,6-trifluorophenyl)urea] |
| 51.9 | 99.1 | Cc1cc(C)c2oc(NC(=O)Nc3c(Cl)cccc3Cl)c(-c3ccccc3Cl)c2c1 [Compound 49, N-[3-(2-Chlorophenyl)-5,7-dimethylbenzofuran-2-yl]-N'-(2,6-dichlorophenyl)urea] |
| 82.6 |  | CCc1cccc(CC)c1NC(=O)Nc1oc2ccc(Cl)cc2c1-c1ccccc1C [Compound 60, N-[5-Chloro-3-(2-methylphenyl)benzofuran-2-yl]-N'-(2,6-diethylphenyl)urea] |
| 65.6 |  | Cc1ccccc1-c1c(NC(=O)Nc2c(C(C)C)cccc2C(C)C)oc2ccc(Cl)cc12 [Compound 61, N-[5-Chloro-3-(2-methylphenyl)benzofuran-2-yl]-N'-(2,6-diisopropylphenyl)urea] |
| 91.6 |  | CCc1cccc(CC)c1NC(=O)Nc1oc2ccc(Cl)cc2c1-c1ccccc1SC [Compound 62, N-[5-Chloro-3-(2-methylthiophenyl)benzofuran-2-yl]-N'-(2,6-diethylphenyl)urea] |
| 72.1 |  | CSc1ccccc1-c1c(NC(=O)Nc2c(C(C)C)cccc2C(C)C)oc2ccc(Cl)cc12 [Compound 63, N-[5-Chloro-3-(2-methylthiophenyl)benzofuran-2-yl]-N'-(2,6-diisopropylphenyl)urea] |
| 56.5 | 99.1 | CCc1cccc(CC)c1NC(=O)Nc1sc2ccc(Cl)cc2c1-c1ccccc1Cl [Compound 65, N-[5-Chloro-3-(2-chlorophenyl)-1-benzothiophen-2-yl]-N'-(2,6-diethylphenyl)urea] |
| 60.6 |  | CCc1cccc(CC)c1NC(=O)Nc1sc2ccc(C)cc2c1-c1ccccc1Cl [Compound 72, N-[3-(2-Chlorophenyl)-5-methyl-1-benzothiophen-2-yl]-N'-(2,6-diethylphenyl)urea] |
| 51.7 |  | CC(C)c1ccc2sc(NC(=O)Nc3c(C(C)C)cccc3C(C)C)c(-c3ccccc3Cl)c2c1 [Compound 77, N-[3-(2-chlorophenyl)-5-isopropyl-1-benzothiophen-2-yl]-N'-(2,6-diisopropylphenyl)urea] |

Reference: patent publication USRE36832E, “N-heteroaryl-N'-phenylurea derivatives, their production and use” (Nihon Nohyaku Co., LTD, priority 1993, dated 2000)
